Laboratory results as given in ChEMBL document CHEMBL5380832, “Serine-/Cysteine-Based sp2-Iminoglycolipids as Novel TLR4 Agonists: Evaluation of Their Adjuvancy and Immunotherapeutic Properties in a Murine Model of Asthma” (J Med Chem, 2023).
Activity calls are given as the source filed them. The calls are words filed in the database; no cut-off is given here.

What was measured:
Splenocyte [1] = test: Immunostimulatory activity in wild-type C57BL/6JNarl mouse splenocytes assessed as increase in IFN-gamma expression level at 10 to 25 uM incubated for 48 hrs by ELISA; type: functional, cell-based; conditions: dose 10-25 µM
Splenocyte [2] = test: Immunostimulatory activity in wild-type C57BL/6JNarl mouse splenocytes assessed as increase in IL-6 expression level at 10 to 25 uM incubated for 48 hrs by ELISA; type: functional, cell-based; conditions: dose 10-25 µM
Splenocyte [3] = test: Immunostimulatory activity in MyD88 knockout C57BL/6JNarl mouse splenocytes assessed as increase in IFN-gamma expression level at 10 to 25 uM incubated for 48 hrs by ELISA; type: functional, cell-based; conditions: dose 10-25 µM
Splenocyte [4] = test: Immunostimulatory activity in MyD88 knockout C57BL/6JNarl mouse splenocytes assessed as increase in IL-6 expression level at 10 to 25 uM incubated for 48 hrs by ELISA; type: functional, cell-based; conditions: dose 10-25 µM
[5] = target: Toll-like receptor 4 (Homo sapiens) (UniProt O00206); test: Agonist activity at human TLR4 expressed in human HEK293 cells co-expressing human MD-2 and CD14 assessed as IL-8 expression level at 10 to 25 uM incubated for 24 hrs by ELISA; type: cell-based; conditions: filed as agonist, dose 10-25 µM
[6] = target: Toll-like receptor 4 (Homo sapiens) (UniProt O00206); test: Activation of TLR4 signaling in human HEK293 cells assessed as IL-8 expression level at 10 to 25 uM incubated for 24 hrs by ELISA; type: cell-based; conditions: dose 10-25 µM
[7] = target: Toll-like receptor 4 (Homo sapiens) (UniProt O00206); test: Activation of TLR4 signaling in human HEK293 cells expressing human MD-2 and CD14 assessed as IL-8 expression level at 10 to 25 uM incubated for 24 hrs by ELISA; type: cell-based; conditions: dose 10-25 µM
[8] = target: Toll-like receptor 2 (Homo sapiens) (UniProt O60603); test: Agonist activity at human TLR2 expressed in human HEK293 cells assessed as IL-8 expression level at 10 to 25 uM incubated for 24 hrs by ELISA; type: cell-based; conditions: dose 10-25 µM
Splenocyte [9] = test: Cytotoxicity in wild-type C57BL/6JNarl mouse splenocytes assessed as reduction in cell viability at 25 uM by MTT assay; type: toxicity, cell-based
HEK293 = test: Cytotoxicity in human HEK293 cells assessed as reduction in cell viability at 25 uM by MTT assay; type: toxicity, cell-based; conditions: hek293, 25 µM
[10] = target: T1, Antigen-presenting glycoprotein CD1d1 (Mus musculus) (UniProt P11609); test: Activation of CD1d signaling in mouse iNKT hybridoma DN3A4-1.2 cells co-cultured with mouse A20 cells expressing CD1d assessed as IL-2 expression level at 10 to 25 uM incubated for 24 hrs by ELISA; type: cell-based; conditions: iNKT hybridoma DN3A4-1.2 cell, dose 10-25 µM
T1 sequence (whole entry): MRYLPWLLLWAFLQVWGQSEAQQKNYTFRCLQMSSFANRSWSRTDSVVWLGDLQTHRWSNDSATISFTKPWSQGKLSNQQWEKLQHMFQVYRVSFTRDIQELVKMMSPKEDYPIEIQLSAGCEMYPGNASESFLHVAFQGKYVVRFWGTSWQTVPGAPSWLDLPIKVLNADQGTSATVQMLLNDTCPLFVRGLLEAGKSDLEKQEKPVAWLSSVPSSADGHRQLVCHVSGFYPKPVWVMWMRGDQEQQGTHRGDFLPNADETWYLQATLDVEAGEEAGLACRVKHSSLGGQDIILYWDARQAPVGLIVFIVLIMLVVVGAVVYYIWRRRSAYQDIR

[11] = target: T1, Antigen-presenting glycoprotein CD1d1 (Mus musculus); test: Binding affinity to mouse CD1d in alpha-GalCer stimulated mouse iNKT hybridoma DN3A4-1.2 cells expressing co-cultured with mouse A20 cells expressing mouse CD1d assessed as inhibition of alpha-GlaCer activity by measuring IL-2 expression level at 10 to 25 uM incubated for 24 hrs by ELISA; type: cell-based; conditions: iNKT hybridoma DN3A4-1.2 cell, dose 10-25 µM
PBMC [12] = test: Immunostimulatory activity in human PBMC cells assessed as increase in IFN-gamma expression level at 10 to 25 uM by ELISA; type: functional, cell-based; conditions: dose 10-25 µM
PBMC [13] = test: Immunostimulatory activity in human PBMC cells assessed as increase in IL-6 expression level at 10 to 25 uM by ELISA; type: functional, cell-based; conditions: dose 10-25 µM
Mus musculus [14] = test: Immunostimulatory activity in C57BL/6JNarl mouse assessed as increase in IFN-gamma expression level in serum at 20 microg/g, ip and measured after 2 hrs by ELISA; type: functional, organism-based; conditions: dose 20.0 µg/g
Mus musculus [15] = test: Immunostimulatory activity in C57BL/6JNarl mouse assessed as increase in IL-4 expression level in serum at 20 microg/g, ip and measured after 2 hrs by ELISA; type: functional, organism-based; conditions: dose 20.0 µg/g
Mus musculus [16] = test: Immunostimulatory activity in C57BL/6JNarl mouse assessed as increase in IFN-gamma expression level in serum at 20 microg/g, ip and measured after 18 hrs by ELISA; type: functional, organism-based; conditions: dose 20.0 µg/g
Mus musculus [17] = test: Immunostimulatory activity in C57BL/6JNarl mouse assessed as increase in IL-4 expression level in serum at 20 microg/g, ip and measured after 18 hrs by ELISA; type: functional, organism-based; conditions: dose 20.0 µg/g
Mus musculus [18] = test: Immuno-adjuvant activity in C57BL/6JNarl mouse […] with OT-1 mouse splenocytes assessed as fold increase in OVA-specific CD8+ T cell proliferation at 20 microg/g, ip in presence of OVA (257 to 264 residues) peptide treatment by flow cytometry relative to control; type: functional; conditions: dose 20 µg/g
Mus musculus [19] = test: Immunomodulatory activity in OVA-sensitized asthmatic BALB/c mouse model assessed as inhibition of methacholine induced airway hyperreactivity by measuring pulmonary resistance at 20 microg/g, ip administered after day 14 OVA sensitization; type: functional; set-up: scale not given: the % may be the effect or the level left; conditions: dose 20 µg/g
Mus musculus [20] = test: Immunomodulatory activity in OVA-sensitized asthmatic BALB/c mouse model assessed as reduction in IL-4 expression level in BALF at 20 microg/g, ip administered after day 14 OVA sensitization by ELISA; type: functional, organism-based; conditions: dose 20.0 µg/g
Mus musculus [21] = test: Immunomodulatory activity in OVA-sensitized asthmatic BALB/c mouse model assessed as reduction in IL-4 expression level in lung at 20 microg/g, ip administered after day 14 OVA sensitization by ELISA; type: functional, organism-based; conditions: dose 20.0 µg/g
Mus musculus [22] = test: Anti-inflammatory activity in OVA-sensitized asthmatic BALB/c mouse model assessed as reduction in IL-13 expression level in BALF at 20 microg/g, ip administered after day 14 OVA sensitization by ELISA; type: functional, organism-based; conditions: dose 20.0 µg/g
Mus musculus [23] = test: Anti-inflammatory activity in OVA-sensitized asthmatic BALB/c mouse model assessed as reduction in IL-13 expression level in lung at 20 microg/g, ip administered after day 14 OVA sensitization by ELISA; type: functional, organism-based; conditions: dose 20.0 µg/g
[24] = Induction of wild type C57BL/6JNarl mouse BMDC cells maturation assessed as increase in CD86 expression at 10 uM by flow cytometry (Rvb= 10.6%); type: functional
[25] = Induction of wild type C57BL/6JNarl mouse BMDC cells maturation assessed as increase in CD86 expression at 50 uM by flow cytometry (Rvb= 10.6%); type: functional
[26] = Induction of MyD88 knockout C57BL/6JNarl mouse BMDC cells maturation assessed as increase in CD86 expression at 50 uM by flow cytometry (Rvb= 15%); type: functional
BMDC [27] = test: Induction of wild type C57BL/6JNarl mouse BMDC cells maturation assessed as increase in IL-12p40 expression level at 10 to 50 uM by ELISA; type: functional, cell-based; conditions: dose 10-50 µM
BMDC [28] = test: Induction of MyD88 knockout C57BL/6JNarl mouse BMDC cells maturation assessed as increase in IL-12p40 expression level at 10 to 50 uM by ELISA; type: functional, cell-based; conditions: dose 10-50 µM
Mus musculus [29] = test: Immunostimulatory activity in C57BL/6JNarl mouse assessed as increase in Cd86 mRNA expression level in spleen at 20 microg/g, ip by RT-qPCR analysis; type: functional, organism-based; conditions: dose 20.0 µg/g
Mus musculus [30] = test: Immunostimulatory activity in C57BL/6JNarl mouse assessed as increase in IL-4 mRNA expression level in spleen at 20 microg/g, ip by RT-qPCR analysis; type: functional, organism-based; conditions: dose 20.0 µg/g

Chain of Toll-like receptor 4 (Homo sapiens) (O00206 whole entry): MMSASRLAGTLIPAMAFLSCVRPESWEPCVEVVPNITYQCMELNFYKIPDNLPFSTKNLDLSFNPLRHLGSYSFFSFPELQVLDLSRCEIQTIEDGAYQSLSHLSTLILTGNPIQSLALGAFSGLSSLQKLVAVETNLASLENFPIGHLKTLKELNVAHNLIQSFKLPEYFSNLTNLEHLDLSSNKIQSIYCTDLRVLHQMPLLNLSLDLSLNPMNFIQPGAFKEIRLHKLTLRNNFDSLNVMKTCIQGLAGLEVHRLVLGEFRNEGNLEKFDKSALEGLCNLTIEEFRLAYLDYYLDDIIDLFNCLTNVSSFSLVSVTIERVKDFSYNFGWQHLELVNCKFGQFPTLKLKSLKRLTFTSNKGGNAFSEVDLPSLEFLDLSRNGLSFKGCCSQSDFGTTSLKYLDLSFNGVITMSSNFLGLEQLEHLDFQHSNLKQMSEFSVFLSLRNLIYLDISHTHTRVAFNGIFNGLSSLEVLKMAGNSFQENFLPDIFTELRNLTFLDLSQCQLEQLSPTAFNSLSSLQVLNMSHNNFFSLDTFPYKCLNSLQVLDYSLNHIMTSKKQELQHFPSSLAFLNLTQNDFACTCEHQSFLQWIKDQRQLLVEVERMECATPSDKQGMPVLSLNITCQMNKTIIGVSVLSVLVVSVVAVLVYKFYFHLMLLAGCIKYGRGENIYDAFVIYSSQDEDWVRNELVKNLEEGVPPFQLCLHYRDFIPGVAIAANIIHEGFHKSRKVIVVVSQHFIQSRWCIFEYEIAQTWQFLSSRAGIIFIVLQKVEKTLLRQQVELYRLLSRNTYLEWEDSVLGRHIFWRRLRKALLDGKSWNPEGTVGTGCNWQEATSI
Chain of Toll-like receptor 2 (Homo sapiens) (O60603 whole entry): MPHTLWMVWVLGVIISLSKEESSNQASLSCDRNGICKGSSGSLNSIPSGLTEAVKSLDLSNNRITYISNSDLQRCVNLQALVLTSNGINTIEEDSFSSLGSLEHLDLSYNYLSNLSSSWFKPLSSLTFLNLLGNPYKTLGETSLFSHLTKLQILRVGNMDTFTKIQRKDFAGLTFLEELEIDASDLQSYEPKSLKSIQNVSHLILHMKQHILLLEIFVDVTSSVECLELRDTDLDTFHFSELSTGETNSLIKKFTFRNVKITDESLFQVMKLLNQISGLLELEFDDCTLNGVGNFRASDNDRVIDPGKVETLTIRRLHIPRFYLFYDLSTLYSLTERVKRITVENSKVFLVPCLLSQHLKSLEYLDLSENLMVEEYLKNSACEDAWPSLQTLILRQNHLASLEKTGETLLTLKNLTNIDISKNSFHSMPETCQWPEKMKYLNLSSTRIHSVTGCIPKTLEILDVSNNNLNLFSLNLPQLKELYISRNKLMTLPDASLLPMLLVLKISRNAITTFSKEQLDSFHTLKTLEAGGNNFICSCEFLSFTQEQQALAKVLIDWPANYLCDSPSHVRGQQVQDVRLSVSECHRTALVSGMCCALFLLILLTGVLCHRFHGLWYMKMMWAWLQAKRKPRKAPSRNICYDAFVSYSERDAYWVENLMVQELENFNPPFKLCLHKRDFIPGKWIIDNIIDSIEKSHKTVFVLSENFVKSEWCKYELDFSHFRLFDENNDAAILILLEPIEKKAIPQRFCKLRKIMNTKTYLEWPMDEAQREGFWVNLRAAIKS

Compound	Activity (Splenocyte [1])	Activity (Splenocyte [2])	Activity (Splenocyte [3])	Activity (Splenocyte [4])	Activity [5]	Activity [6]	Activity [7]	Activity [8]	Activity (Splenocyte [9])	Activity (HEK293)	Activity [10]	Activity [11]	Activity (PBMC [12])	Activity (PBMC [13])	Activity (Mus musculus [14])	Activity (Mus musculus [15])	Activity (Mus musculus [16])	Activity (Mus musculus [17])	Activity (Mus musculus [19])	Activity (Mus musculus [20])	further results
CCCCCCCCCCCCNC(=O)[C@H](CO[C@@H]1[C@H](O)[C@@H](O)[C@@H](O)[C@H]2COC(=O)N21)NC(=O)CCCCCCCCCCC	Active	Active	inactive	inactive	Active	inactive	inactive	inactive	Non-Toxic	Non-Toxic	inactive	inactive	Active	Active	Active	Active	Active	Active	50%	Active	fold change (FC) (Mus musculus [18]): 10; Activity (Mus musculus [21]): Active; Activity (Mus musculus [22]): Active; Activity (Mus musculus [23]): Active
CCCCCCCCCCCNC(=O)[C@H](CO[C@H]1O[C@H](CO)[C@H](O)[C@H](O)[C@H]1O)NC(=O)CCCCCCCCCCC	Active	Active	inactive	inactive	–	–	–	–	–	–	–	inactive	–	–	–	–	–	–	–	–	–
CCCCCCCCCCCCNC(=O)[C@H](CS[C@@H]1[C@H](O)[C@@H](O)[C@H](O)[C@H]2COC(=O)N21)NC(=O)CCCCCCCCCCC	Active	inactive	inactive	inactive	Active	inactive	inactive	inactive	Non-Toxic	Non-Toxic	inactive	inactive	inactive	inactive	Active	Active	Active	Active	50%	Active	Activity (Mus musculus [21]): Active
CCCCCCCCCCCCNC(=O)[C@H](CS[C@@H]1[C@H](O)[C@@H](O)[C@@H](O)[C@H]2COC(=O)N21)NC(=O)CCCCCCCCCCC	Active	inactive	inactive	inactive	Active	inactive	inactive	inactive	Non-Toxic	Non-Toxic	inactive	inactive	inactive	inactive	Active	Active	Active	Active	50%	Active	Activity (Mus musculus [21]): Active
CCCCCCCCCCCCNC(=O)[C@H](CO[C@@H]1[C@H](O)[C@@H](O)[C@H](O)[C@H]2COC(=O)N21)NC(=O)CCCCCCCCCCC	Active	Active	inactive	inactive	Active	inactive	inactive	inactive	Non-Toxic	Non-Toxic	inactive	inactive	Active	Active	Active	Active	Active	Active	50%	Active	Activity [24]: 25.8%; Activity [25]: 54.9%; Activity [26]: 23.8%; Activity (BMDC [27]): Dose-Dependent Effect; Activity (BMDC [28]): inactive; Activity (Mus musculus [29]): Active; Activity (Mus musculus [30]): Active; fold change (FC) (Mus musculus [18]): 5; Activity (Mus musculus [21]): Active; Activity (Mus musculus [22]): Active; Activity (Mus musculus [23]): Active
